Source: ChEMBL document CHEMBL4354828, “Discovery of Taniborbactam (VNRX-5133): A Broad-Spectrum Serine- and Metallo-β-lactamase Inhibitor for Carbapenem-Resistant Bacterial Infections” (J Med Chem, 2020)
Values after ≈ are worked out from the molar mass of the structure shown.

What was measured:
[1] = molecular target: Matrix metalloproteinase-9 (Homo sapiens, UniProt P14780); assay: Inhibition of human MMP9 at 100 uM
Cytochrome P450 2C9 = Cytochrome P450 2C9 (Homo sapiens, UniProt P11712); assay: Inhibition of human CYP2C9 at 100 uM; assay type: ADME
Trypsin = Trypsin (Homo sapiens, UniProt P07477+P07478+P35030); assay: Inhibition of human trypsin at 100 uM; assay type: protein assay
Pseudomonas aeruginosa [2] = assay: Effect on growth of wild type Pseudomonas aeruginosa 27853 after 16 to 20 hrs by CLSI-based microbroth dilution method; assay type: organism-based
Klebsiella pneumoniae [3] = assay: Inhibition of OXA-48 in Klebsiella pneumoniae assessed as meropenem antibacterial activity at 4 ug/ml after 16 to 20 hrs by CLSI-based microbroth dilution method (Rvb >= […] ug/ml)
[4] = Inhibition of bacterial KPC-2 using imipenem as substrate preincubated for 15 mins followed by susbtrate addition and measured after 10 mins by spectrophotometric method; set-up: species or system Bacteria
Interstitial collagenase = Interstitial collagenase (Homo sapiens, UniProt P03956); assay: Inhibition of human MMP1 at 100 uM
Cathepsin G = Cathepsin G (Homo sapiens, UniProt P08311); assay: Inhibition of human cathepsin G at 100 uM
Klebsiella pneumoniae [5] = assay: Effect on growth of wild type Klebsiella pneumoniae CI 09 after 16 to 20 hrs by CLSI-based microbroth dilution method; assay type: organism-based
Klebsiella pneumoniae [6] = assay: Inhibition of TEM/CTX-M/SHV in Klebsiella pneumoniae 9032 assessed as cefepime antibacterial activity at 4 ug/ml after 16 to 20 hrs by CLSI-based microbroth dilution method (reference value: […] ug/ml)
Coagulation factor X = Coagulation factor X (Homo sapiens, UniProt P00742); assay: Inhibition of human factor Xa at 100 uM
Klebsiella pneumoniae [7] = assay: Antibacterial activity against Klebsiella pneumoniae UNT-065-1 expressing CTX-M14 infected in CD1 mouse assessed as log reduction in viable bacterial count in lung at 16 mg/kg, sc administered as single dose co-treated with 32 mg/kg cefepime and measured after 24 hrs post infection (reference value: 9.27 +/- 0.21); assay type: functional
Klebsiella pneumoniae [8] = assay: Effect on growth of Klebsiella pneumoniae 11978 expressing OXA-48 after 16 to 20 hrs by CLSI-based microbroth dilution method; assay type: organism-based; details: in vivo
Staphylococcus aureus = assay: Effect on growth of wild type Staphylococcus aureus ATCC 29213 after 16 to 20 hrs by CLSI-based microbroth dilution method; assay type: organism-based
Cytochrome P450 3A4 = Cytochrome P450 3A4 (Homo sapiens, UniProt P08684); assay: Inhibition of human CYP3A4 at 100 uM; assay type: ADME
Enterobacter cloacae = assay: Inhibition of TEM/CTX-M/SHV/Cephalosporinase in Enterobacter cloacae CH23 assessed as cefepime antibacterial activity at 4 ug/ml after 16 to 20 hrs by CLSI-based microbroth dilution method (Rvb > […] ug/ml)
Cytochrome P450 1A2 = Cytochrome P450 1A2 (Homo sapiens, UniProt P05177); assay: Inhibition of human CYP1A2 at 100 uM; assay type: ADME
Escherichia coli = assay: Inhibition of TEM/CTX-M/SHV/Cephalosporinase in Escherichia coli CH1 assessed as cefepime antibacterial activity at 4 ug/ml after 16 to 20 hrs by CLSI-based microbroth dilution method (Rvb > […] ug/ml)
Chymotrypsin = Chymotrypsin (Homo sapiens, UniProt Q99895+P17538+P40313+Q6GPI1); assay: Inhibition of human chymotrypsin at 100 uM; assay type: protein assay
Pseudomonas aeruginosa [9] = assay: Effect on growth of Pseudomonas aeruginosa Ps296 AmpC/VIM-2/TEM-1 after 16 to 20 hrs by CLSI-based microbroth dilution method; assay type: organism-based; details: in vivo

Coagulation factor X, sequence (P00742 41-179 limits assumed): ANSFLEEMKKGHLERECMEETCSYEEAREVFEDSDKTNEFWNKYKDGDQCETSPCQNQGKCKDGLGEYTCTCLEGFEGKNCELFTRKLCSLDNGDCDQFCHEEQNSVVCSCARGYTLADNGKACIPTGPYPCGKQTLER
Coagulation factor X, sequence (P00742 235-488 limits assumed): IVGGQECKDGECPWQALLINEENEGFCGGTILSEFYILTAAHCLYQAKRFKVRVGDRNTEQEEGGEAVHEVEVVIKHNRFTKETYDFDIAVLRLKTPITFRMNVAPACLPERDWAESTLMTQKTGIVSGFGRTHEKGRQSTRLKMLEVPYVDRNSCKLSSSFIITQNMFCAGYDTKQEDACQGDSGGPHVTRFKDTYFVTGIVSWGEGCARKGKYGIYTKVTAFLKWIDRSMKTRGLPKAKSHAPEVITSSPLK
Cytochrome P450 2C9, sequence (P11712 whole entry): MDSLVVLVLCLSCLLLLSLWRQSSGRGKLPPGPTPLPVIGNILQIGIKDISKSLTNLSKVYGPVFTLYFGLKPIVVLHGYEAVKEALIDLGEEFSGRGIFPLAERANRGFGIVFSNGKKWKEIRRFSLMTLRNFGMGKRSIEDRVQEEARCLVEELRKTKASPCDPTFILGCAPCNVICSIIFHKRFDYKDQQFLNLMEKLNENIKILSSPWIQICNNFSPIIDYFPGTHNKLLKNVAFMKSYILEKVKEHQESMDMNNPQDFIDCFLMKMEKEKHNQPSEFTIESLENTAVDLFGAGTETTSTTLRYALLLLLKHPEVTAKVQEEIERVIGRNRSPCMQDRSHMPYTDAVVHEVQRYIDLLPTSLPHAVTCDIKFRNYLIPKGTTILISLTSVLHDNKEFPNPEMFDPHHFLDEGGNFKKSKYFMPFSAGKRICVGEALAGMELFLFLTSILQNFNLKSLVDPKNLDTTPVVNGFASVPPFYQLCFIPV
Interstitial collagenase, sequence (P03956 whole entry): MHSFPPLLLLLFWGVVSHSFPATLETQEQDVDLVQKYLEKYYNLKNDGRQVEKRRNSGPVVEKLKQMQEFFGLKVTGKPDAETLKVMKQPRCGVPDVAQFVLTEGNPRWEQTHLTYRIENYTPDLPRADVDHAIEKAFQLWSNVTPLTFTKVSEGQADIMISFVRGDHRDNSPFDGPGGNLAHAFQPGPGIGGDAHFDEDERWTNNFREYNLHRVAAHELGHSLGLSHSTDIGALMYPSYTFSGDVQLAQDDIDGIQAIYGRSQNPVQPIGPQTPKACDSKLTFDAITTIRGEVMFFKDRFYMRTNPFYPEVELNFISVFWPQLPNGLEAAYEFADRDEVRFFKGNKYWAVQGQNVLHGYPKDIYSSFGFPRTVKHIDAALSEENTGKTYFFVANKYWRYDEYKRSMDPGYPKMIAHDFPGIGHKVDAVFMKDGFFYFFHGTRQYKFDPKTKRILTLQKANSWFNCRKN
Cytochrome P450 3A4, sequence (P08684 whole entry): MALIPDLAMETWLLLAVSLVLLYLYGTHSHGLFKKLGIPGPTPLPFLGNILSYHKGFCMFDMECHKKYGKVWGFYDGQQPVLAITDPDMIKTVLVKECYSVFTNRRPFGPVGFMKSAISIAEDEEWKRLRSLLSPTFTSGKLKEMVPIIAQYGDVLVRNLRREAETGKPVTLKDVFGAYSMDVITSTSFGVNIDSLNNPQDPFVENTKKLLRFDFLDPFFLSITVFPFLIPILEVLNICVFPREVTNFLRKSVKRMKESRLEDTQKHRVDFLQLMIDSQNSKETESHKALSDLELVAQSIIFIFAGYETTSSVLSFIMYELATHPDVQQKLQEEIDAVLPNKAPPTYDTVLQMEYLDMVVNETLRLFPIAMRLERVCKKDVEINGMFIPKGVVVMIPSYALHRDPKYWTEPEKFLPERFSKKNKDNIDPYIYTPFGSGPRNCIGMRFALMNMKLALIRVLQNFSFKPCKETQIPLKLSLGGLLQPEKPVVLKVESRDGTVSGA
Cathepsin G, sequence (P08311 whole entry): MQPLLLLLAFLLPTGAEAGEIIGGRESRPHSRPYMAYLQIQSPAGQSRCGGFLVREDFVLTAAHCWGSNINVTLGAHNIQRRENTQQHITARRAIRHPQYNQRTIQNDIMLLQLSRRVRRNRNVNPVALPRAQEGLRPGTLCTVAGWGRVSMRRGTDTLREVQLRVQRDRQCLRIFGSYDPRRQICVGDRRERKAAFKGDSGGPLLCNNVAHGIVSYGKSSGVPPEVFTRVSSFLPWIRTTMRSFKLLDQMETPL
Matrix metalloproteinase-9, sequence (P14780 whole entry): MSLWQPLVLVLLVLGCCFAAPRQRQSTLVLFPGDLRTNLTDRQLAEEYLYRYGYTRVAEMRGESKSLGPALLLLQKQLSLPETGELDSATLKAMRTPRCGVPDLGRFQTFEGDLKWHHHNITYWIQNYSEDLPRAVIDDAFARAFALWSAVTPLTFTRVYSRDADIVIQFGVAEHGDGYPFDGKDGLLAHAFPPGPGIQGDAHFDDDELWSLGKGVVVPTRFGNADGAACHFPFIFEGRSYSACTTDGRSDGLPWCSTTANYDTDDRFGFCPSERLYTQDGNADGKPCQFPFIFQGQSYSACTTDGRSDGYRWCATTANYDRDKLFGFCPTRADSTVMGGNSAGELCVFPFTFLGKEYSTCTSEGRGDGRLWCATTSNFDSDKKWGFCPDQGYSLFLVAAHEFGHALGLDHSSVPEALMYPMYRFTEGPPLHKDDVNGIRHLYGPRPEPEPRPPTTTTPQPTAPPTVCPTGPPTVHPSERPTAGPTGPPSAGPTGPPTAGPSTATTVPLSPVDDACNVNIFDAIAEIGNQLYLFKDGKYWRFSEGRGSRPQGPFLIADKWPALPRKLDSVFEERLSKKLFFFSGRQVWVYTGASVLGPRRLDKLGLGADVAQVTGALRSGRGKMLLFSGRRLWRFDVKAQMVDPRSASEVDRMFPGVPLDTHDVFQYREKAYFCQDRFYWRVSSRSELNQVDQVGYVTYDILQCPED
Cytochrome P450 1A2, sequence (P05177 whole entry): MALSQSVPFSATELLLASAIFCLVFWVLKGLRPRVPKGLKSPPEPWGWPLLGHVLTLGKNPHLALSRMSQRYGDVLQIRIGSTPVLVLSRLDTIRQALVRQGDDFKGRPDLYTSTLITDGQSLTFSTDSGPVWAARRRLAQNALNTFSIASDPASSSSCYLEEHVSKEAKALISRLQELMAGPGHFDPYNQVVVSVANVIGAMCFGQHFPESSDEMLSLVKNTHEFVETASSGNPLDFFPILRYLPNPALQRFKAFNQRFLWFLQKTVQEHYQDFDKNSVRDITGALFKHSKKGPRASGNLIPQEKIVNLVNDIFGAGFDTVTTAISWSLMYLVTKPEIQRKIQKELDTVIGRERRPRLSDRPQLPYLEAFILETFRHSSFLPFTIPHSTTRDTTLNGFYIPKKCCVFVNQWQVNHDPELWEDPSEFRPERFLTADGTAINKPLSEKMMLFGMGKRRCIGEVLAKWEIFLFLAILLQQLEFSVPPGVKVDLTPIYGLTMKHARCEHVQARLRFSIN

With NCCN[C@H]1CC[C@H](CC(=O)N[C@H]2Cc3cccc(C(=O)O)c3OB2O)CC1 the “inhibition (INH)” value [1] was “Not Active”, the “inhibition (INH)” value (Cytochrome P450 2C9) was “Not Active” and the “inhibition (INH)” value (Trypsin) was “Not Active”. The MIC (Pseudomonas aeruginosa [2]) was over 128 µg/mL, the MIC (Klebsiella pneumoniae [3]) was 2 µg/mL (≈ 5.14 µM) and the IC50 [4] was 30 nM. For the same molecule, the “inhibition (INH)” value (Interstitial collagenase) was “Not Active”, the “inhibition (INH)” value (Cathepsin G) was “Not Active” and the MIC (Klebsiella pneumoniae [5]) was over 128 µg/mL. The MIC (Klebsiella pneumoniae [6]) was under 0.125 µg/mL, the “inhibition (INH)” value (Coagulation factor X) was “Not Active” and the Activity (Klebsiella pneumoniae [7]) was 4.51 log10CFU. The MIC (Klebsiella pneumoniae [8]) was over 128 µg/mL, the MIC (Staphylococcus aureus) was over 128 µg/mL and the “inhibition (INH)” value (Cytochrome P450 3A4) was “Not Active”. The MIC (Enterobacter cloacae) was 0.5 µg/mL (≈ 1.28 µM), the “inhibition (INH)” value (Cytochrome P450 1A2) was “Not Active” and the MIC (Escherichia coli) was under 0.125 µg/mL. For the same molecule, the “inhibition (INH)” value (Chymotrypsin) was “Not Active” and the MIC (Pseudomonas aeruginosa [9]) was over 128 µg/mL.
